In patent US11072588B2, “Barbituric acid derivatives comprising cationic and lipophilic groups” (UNIVERSITETET I TROMSØ—NORGES ARKTISKE UNIVERSITET, priority 2017, dated 2021):
Converted amounts (≈) assume the structure as drawn.

Tests used:
Format in all cases: cell-based
[1] = system: human metastatic melanoma (A2058, ATCC CRL-11147) cells; assay: Anti-cancer activity against A2058 cells; conditions: A2058, read-out: Anti-cancer IC50
Description: Cytotoxicity of the test compounds was evaluated after 72 hour exposure to human metastatic melanoma (A2058, ATCC CRL-11147) cells.
A2058 cells were grown overnight (2,000 cells/well), and then incubated with the test compounds (range of concentrations) diluted in MEM Earle's supplemented with gentamycin (10 μg/mL), non-essential amino acids (1%), sodium pyruvate (1 mM), L-alanyl-Lglutamine (2 mM), but without FBS (total volume was 100 μl) for […]. Ten μL of CellTiter 96® AQueous One Solution Reagent (Promega, Madison, Wis., USA) was added, and the plates were then further incubated for 1 hour.
Absorbance was measured at 485 nm in a DTX 880 Multimode Detector. Results were calculated as % survival compared to negative (assay media) and positive (Triton X-100; Sigma-Aldrich) controls.

[2] = system: Corynebacterium glutamicum ATCC 13032; assay: MIC assay, antibiotic susceptible reference strain; conditions: ATCC13032; Corynebacterium glutamicum ATCC 13032; read-out: Antimicrobial activity (MIC) C. g
Description: (§1) Working solutions of the test derivatives were prepared with up to 100% DMSO and stored at −20° C. If necessary, the solutions were heated to 40-80° C. before testing to facilitate complete dissolution. Double-distilled water was used in all dilutions prepared. […] A microdilution susceptibility test was used for MIC determination according to Clinical and Laboratory Standards Institute, “Methods for Dilution Antimicrobial Sisceptibility Tests for Bacteria That Graw Aerobically”, Approved Standard M07-A9, edition 2012, with modifications as described by Igumnova et al (Bioorg Med Chem, 2016, 24 (22), 5884-5894).
(§2) Briefly, the bacterial inoculum was adjusted to approximately 2.5-3×10^4 cells/mL in Mueller-Hinton broth (MHB, Difco Laboratories, USA), and incubated in a ratio of 1:1 with test derivatives in polystyrene 96-well flat-bottom microplates (NUNC, Roskilde, Denmark). Positive growth control (without test derivatives) and negative control (without bacteria) were included. The reference antibiotic was oxytetracycline hydrochloride (Sigma Aldrich, Saint Louis, Mo., USA). The microplates were incubated in an EnVision microplate reader (Perkin-Elmer, Turku, Finland) placed in an incubator set to 35° C. for 48 h. The MIC value was defined as the lowest concentration of derivative resulting in no bacterial growth as determined by OD600 measurement. All derivatives were tested in three parallels.

[3] = system: Escherichia coli ATCC 25922; assay: MIC assay, antibiotic susceptible reference strain; conditions: ATCC25922; Escherichia coli ATCC 25922; read-out: Antimicrobial activity (MIC) E. c
Description: as §1, §2

[4] = system: Pseudomonas aeruginosa PA01, DSM 19880 (ATCC 15692); assay: MIC assay, antibiotic susceptible reference strain; conditions: Pseudomonas aeruginosa PA01, DSM 19880 (ATCC 15692); read-out: Antimicrobial activity (MIC) P. a
Description: as §1, §2

[5] = system: Staphylococcus aureus ATCC 9144; assay: MIC assay, antibiotic susceptible reference strain; conditions: ATCC9144; Staphylococcus aureus ATCC 9144; read-out: Antimicrobial activity (MIC) S. a
Description: as §1, §2

SMILES	IC50 [1] [µg/mL]	MIC [2] [µg/mL]	MIC [3] [µg/mL]	MIC [4] [µg/mL]	MIC [5] [µg/mL]
NCCCCN1C(=O)N(CCCCN)C(=O)C(CCCc2ccccc2)(CCCc2ccccc2)C1=O [Compound 9]	2.9 (≈ 5.72 µM)	–	–	–	–
CN(C)[C@@H]1C(O)=C(C(N)=O)C(=O)[C@@]2(O)C(O)=C3C(=O)c4c(O)cccc4[C@@](C)(O)[C@H]3[C@H](O)[C@@H]12 [Oxytetracycline, reference compound]	–	0.65 (≈ 1.41 µM)	2.5 (≈ 5.43 µM)	20 (≈ 43.4 µM)	0.65 (≈ 1.41 µM)
